Reference: patent publication US20020169183A1, “Acridines as stimulators for Fas-mediated apoptosis” (priority 2001, published 2002)

Assays:
Hepatocytes = test: Fas-dependent apoptosis by FACS analysis (DNA fragmentation, propidium iodide; annexin V); type: cell-based; settings: at 10 μM
Description: Assays for Fas-dependent apoptosis are known in the art. See, for example, Ruiz-Ruiz et al, Cell Death Diff. 6:271 (1999); and Muller et al., […]. 188:2033 (1998).
Apoptosis is identified by detection of the DNA fragmentation pattern characteristic of apoptotic cell death. In this Example, apoptosis is detected and measured by FACS® analysis carried out in a FACScan® flow cytometer (Becton Dickinson) using CellQuest software. Quantification of DNA fragmentation is performed by FACS® analysis of propidium iodide-stained nuclei as described in Nicolletti et al., J. Immunol. Methods 139:271-279 (1991). Hepatocytes floating in the culture medium are collected by centrifugation at 200× g. Adherent hepatocytes are harvested by incubation with 1% trypsin for 1 min. The cells are washed in phosphate-buffered saline (PBS), suspended in hypotonic lysis buffer (0.1% sodium citrate, 0.1% Triton X, and […] propidium iodide) (Sigma) and incubated at 4° C. for 6 hours. Cells are then analyzed for DNA content by flow cytometry.
Early apoptotic changes are identified using annexin V-Fluos (Boehringer Mannheim) which binds to phosphatidylserine molecules (PS) exposed on apoptotic, but not normal, cell membranes (PS is normally restricted to the inner leaflet of the cell membrane bilayer). […] Cells are incubated for 10-15 min and analyzed on a flow cytometer using CellQuest software. […]

Synoviocytes = test: Stimulation of Fas-mediated apoptosis: XTT cell viability with anti-human Fas antibody h-HFE7A, stimulation index; type: cell-based; settings: 10 μM compound with h-HFE7A 1000 ng/mL, synoviocytes from rheumatoid arthritis patients, 16 hours
Source text: Anti-human Fas antibody h-HFE7A, humanized antibody was obtained from Sankyo Co., Ltd. This antibody induces apoptosis when cross-linked with secondary antibody in vitro.
Samples of human synovium were obtained from rheumatoid arthritis patients at the time of total knee replacement surgery or synoviectomy. Synovial tissue was minced into small pieces and was digested with collagenase and cultured in Ham's F12 medium supplemented with 10% fetal bovine serum (F10F) in a humidified 5% CO2 atmosphere at 37° C. Adherent cells were considered as synoviocytes and were cultivated in F10F.
Cell viability was determined with the XTT method described in Cancer Res. 48:4827 (1988). Ninety-six well flat plates were precoated with anti-human IgG. h-HFE7A (1000 ng/mL) and/or 10 μM of a compound of this invention were added and incubated for 2 hours. Synoviocytes were seeded (10,000/well) and incubated for 16 hours. Background wells received culture medium only. XTT (2,3-Bis[2-methoxy-4-nitro-sulfophenyl]-2H-tetrazolium-5-carboxanilide), final concentration 200 μg/mL, and phenazine methosulfate, final concentration 5 μM, were added to each well, and further incubated for 4 hours. The absorbance at 450 nm was measured and cell viability was determined as follows: [formula]
Enhancement of Fas-mediated apoptosis by compounds of this invention was determined by the stimulation index (SI): [formula] […]

## CCN(CC)CCCNc1c2ccccc2nc2ccccc12 [Compound 3, 9-[(3-diethylaminopropyl)amino]acridine]
Hepatocytes
  stimulation of Fas-dependent apoptosis: shows stimulation
Synoviocytes
  Enhancement of Fas-mediated apoptosis, stimulation index (SI): positive (An SI over 2.0 was considered positive)
